For this test, the target named is T1, Endopolygalactyuronase (Chondrostereum purpureum, UniProt P79074).
T1 sequence (P79074 whole entry): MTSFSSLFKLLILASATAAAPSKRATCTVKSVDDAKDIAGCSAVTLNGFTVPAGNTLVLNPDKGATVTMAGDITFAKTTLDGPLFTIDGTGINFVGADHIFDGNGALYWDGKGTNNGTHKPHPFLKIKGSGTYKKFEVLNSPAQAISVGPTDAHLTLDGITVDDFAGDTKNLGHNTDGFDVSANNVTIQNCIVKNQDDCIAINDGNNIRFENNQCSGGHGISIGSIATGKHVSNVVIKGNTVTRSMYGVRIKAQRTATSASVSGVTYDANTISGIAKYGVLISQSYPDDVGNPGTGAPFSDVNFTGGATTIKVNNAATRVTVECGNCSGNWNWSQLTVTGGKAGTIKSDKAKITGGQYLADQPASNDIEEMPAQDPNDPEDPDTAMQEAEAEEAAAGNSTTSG
The test is described as follows: Dissociation constant against endo-polygalacturonase 1.

Compound `CO[C@H]1O[C@@H](C(=O)O)[C@H](S[C@H]2O[C@@H](C(=O)O)[C@H](O[C@H]3O[C@@H](C(=O)O)[C@H](O)[C@H](O)[C@@H]3O)[C@H](O)[C@@H]2O)[C@H](O)[C@@H]1O` registered a Kd of 200 nM.

The Kd is a measure of binding affinity in units of concentration. High values mean a looser complex, low ones a tighter complex.

Values taken from ChEMBL document CHEMBL1143489, “Design, synthesis, and enzymatic property of a sulfur-substituted analogue of trigalacturonic acid” (Bioorg Med Chem Lett, 2005).
